Data from patent US10160755B2 (Plexxikon Inc., priority 2015, dated 2018).

Key:
FLT3-ITD = molecular target: T1, FLT3-ITD (Homo sapiens, UniProt P36888); assay: FLT3-ITD biochemical kinase assay (AlphaScreen)
T1 construct: FLT3-ITD; Invitrogen #PV6190
T1 sequence (P36888 1-993): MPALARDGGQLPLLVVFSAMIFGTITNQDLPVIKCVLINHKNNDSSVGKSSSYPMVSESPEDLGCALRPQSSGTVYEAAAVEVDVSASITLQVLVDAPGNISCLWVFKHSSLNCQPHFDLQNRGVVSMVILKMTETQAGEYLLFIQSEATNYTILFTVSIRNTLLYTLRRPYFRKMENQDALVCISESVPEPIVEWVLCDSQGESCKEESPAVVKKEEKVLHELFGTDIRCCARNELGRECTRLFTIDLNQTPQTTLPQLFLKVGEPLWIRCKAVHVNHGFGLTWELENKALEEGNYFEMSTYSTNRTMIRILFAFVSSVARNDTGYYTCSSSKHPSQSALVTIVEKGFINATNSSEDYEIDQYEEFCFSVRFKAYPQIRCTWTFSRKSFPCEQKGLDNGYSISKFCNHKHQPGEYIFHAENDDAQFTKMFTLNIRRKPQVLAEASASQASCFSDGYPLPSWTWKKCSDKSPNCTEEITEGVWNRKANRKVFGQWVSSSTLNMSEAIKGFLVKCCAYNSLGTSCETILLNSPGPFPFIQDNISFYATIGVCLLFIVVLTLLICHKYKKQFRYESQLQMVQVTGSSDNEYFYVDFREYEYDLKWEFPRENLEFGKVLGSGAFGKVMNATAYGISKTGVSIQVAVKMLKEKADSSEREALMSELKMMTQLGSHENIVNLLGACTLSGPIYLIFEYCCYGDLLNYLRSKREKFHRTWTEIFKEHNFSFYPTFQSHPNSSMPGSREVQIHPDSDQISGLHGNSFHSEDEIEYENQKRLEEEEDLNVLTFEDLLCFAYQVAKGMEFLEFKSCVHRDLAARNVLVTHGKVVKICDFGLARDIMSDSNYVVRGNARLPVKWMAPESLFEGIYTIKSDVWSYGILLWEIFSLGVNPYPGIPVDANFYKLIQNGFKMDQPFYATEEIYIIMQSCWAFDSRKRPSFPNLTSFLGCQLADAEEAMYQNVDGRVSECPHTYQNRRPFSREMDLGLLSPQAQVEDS
Procedure, shortened: (§1)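 Read-out is AlphaScreen at 580 nm, where reduced substrate tyrosine phosphorylation lowers bead proximity signal. Reactions contain 30 nM biotinylated poly(Glu4-Tyr) and ATP at 10 μM (D835Y) or 100 μM (ITD); PY20 acceptor beads 10 μg/mL final, 60 min at room temperature before reading.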

FLT3-D835Y = molecular target: T2, FLT3-D835Y (Homo sapiens, UniProt P36888, D835Y); assay: FLT3-D835Y biochemical kinase assay (AlphaScreen)
T2 construct: purchased Invitrogen PV3967
T2 sequence (P36888 27-993 D835Y): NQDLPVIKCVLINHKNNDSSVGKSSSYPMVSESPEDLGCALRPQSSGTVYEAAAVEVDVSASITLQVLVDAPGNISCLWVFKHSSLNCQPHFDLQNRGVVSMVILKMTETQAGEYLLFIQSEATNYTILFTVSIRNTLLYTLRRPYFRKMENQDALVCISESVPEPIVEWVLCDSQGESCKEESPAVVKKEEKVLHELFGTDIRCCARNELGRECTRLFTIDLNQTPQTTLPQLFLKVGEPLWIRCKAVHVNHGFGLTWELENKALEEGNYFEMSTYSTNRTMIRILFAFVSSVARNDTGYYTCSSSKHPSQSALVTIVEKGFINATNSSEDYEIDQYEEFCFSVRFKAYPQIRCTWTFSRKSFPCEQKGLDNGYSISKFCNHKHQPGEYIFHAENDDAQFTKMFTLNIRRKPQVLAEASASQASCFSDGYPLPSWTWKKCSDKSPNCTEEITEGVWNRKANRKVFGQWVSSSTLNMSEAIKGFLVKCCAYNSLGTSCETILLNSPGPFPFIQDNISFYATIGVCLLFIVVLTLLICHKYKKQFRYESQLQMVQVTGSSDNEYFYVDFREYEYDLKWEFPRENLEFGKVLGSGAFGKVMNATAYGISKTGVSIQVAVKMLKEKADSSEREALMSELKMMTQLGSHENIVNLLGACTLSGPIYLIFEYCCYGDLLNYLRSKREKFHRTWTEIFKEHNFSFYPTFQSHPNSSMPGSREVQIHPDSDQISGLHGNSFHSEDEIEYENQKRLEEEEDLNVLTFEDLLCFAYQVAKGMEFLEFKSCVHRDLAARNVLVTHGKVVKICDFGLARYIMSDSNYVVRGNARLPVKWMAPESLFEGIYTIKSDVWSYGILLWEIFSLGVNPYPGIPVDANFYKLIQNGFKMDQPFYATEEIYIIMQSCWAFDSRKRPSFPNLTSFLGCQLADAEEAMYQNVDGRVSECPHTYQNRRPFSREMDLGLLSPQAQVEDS
Procedure, shortened: as §1

Row | IC50 (FLT3-ITD) [µM] | IC50 (FLT3-D835Y) [µM] | SMILES
1 | 0.0001 to 1 | 0.0001 to 1 | CCCS(=O)(=O)Nc1cccc(-c2cnc3[nH]cc(-c4ccc5ncsc5c4)c3n2)c1 [P-168, N-[3-[7-(1,3-benzothiazol-6-yl)-5H-pyrrolo[2,3-b]pyrazin-2-yl]phenyl]propane-1-sulfonamide]
2 | 0.0001 to 1 | 0.0001 to 1 | O=S(=O)(Nc1cnc2[nH]cc(-c3ccc4ncn(C5CCCNC5)c4c3)c2c1)c1cccc(OC(F)(F)F)c1 (stereo not drawn) [P-212, N-[3-[3-(3-piperidyl)benzimidazol-5-yl]-1H-pyrrolo[2,3-b]pyridin-5-yl]-3-(trifluoromethoxy)benzenesulfonamide]
3 | 0.0001 to 1 | 0.0001 to 1 | Cn1cnc2ccc(-c3c[nH]c4ncc(-c5cccc(C#N)c5)nc34)cc21 [P-146, 3-[7-(3-methylbenzimidazol-5-yl)-5H-pyrrolo[2,3-b]pyrazin-2-yl]benzonitrile]
4 | 0.0001 to 1 | 0.0001 to 1 | CC(C)(C)n1cnc2ccc(-c3c[nH]c4ncc(-c5ccc(C#N)c(N6CCCC6)c5)nc34)cc21 [P-335, 4-[7-(3-tert-butylbenzimidazol-5-yl)-5H-pyrrolo[2,3-b]pyrazin-2-yl]-2-pyrrolidin-1-yl-benzonitrile]
5 | 0.0001 to 1 | 0.0001 to 1 | CC(C)n1cnc2ccc(-c3c[nH]c4ncc(-c5cccc(NS(C)(=O)=O)c5)nc34)cc21 [P-080, N-[3-[7-(3-isopropylbenzimidazol-5-yl)-5H-pyrrolo[2,3-b]pyrazin-2-yl]phenyl]methanesulfonamide]
6 | 0.0001 to 1 | 0.0001 to 1 | COC(=O)c1cc(-c2cnc3[nH]cc(-c4ccc5ncsc5c4)c3n2)ccc1C [P-165, methyl 5-[7-(1,3-benzothiazol-6-yl)-5H-pyrrolo[2,3-b]pyrazin-2-yl]-2-methyl-benzoate]
7 | 0.0001 to 1 | 0.0001 to 1 | COc1cccc(-c2cnc3[nH]cc(-c4ccc5ncsc5c4)c3n2)c1 [P-158, 6-[2-(3-methoxyphenyl)-5H-pyrrolo[2,3-b]pyrazin-7-yl]-1,3-benzothiazole]
8 | 0.0001 to 1 | 0.0001 to 1 | COc1cc(-c2cnc3[nH]cc(-c4ccc5ncn(C6CCCNC6)c5c4)c3c2)cc(OC)n1 (stereo not drawn) [P-197, 5-(2,6-dimethoxy-4-pyridyl)-3-[3-(3-piperidyl)benzimidazol-5-yl]-1H-pyrrolo[2,3-b]pyridine]
9 | 0.0001 to 1 | 0.0001 to 1 | Cn1cnc2ccc(-c3c[nH]c4ncc(-c5cnn(CC(F)(F)F)c5)nc34)cc21 [P-176, 7-(3-methylbenzimidazol-5-yl)-2-[1-(2,2,2-trifluoroethyl)pyrazol-4-yl]-5H-pyrrolo[2,3-b]pyrazine]
10 | 0.0001 to 1 | 0.0001 to 1 | Cn1cnc2ccc(-c3c[nH]c4ncc(-c5cccc(S(=O)(=O)N6CCCC6)c5)nc34)cc21 [P-156, 7-(3-methylbenzimidazol-5-yl)-2-(3-pyrrolidin-1-ylsulfonylphenyl)-5H-pyrrolo[2,3-b]pyrazine]
11 | 0.0001 to 1 | 0.0001 to 1 | CC(C)(C)n1cnc2ccc(-c3c[nH]c4ncc(C#Cc5ccccc5)nc34)cc21 [P-142, 7-(3-tert-butylbenzimidazol-5-yl)-2-(2-phenylethynyl)-5H-pyrrolo[2,3-b]pyrazine]
12 | 0.0001 to 1 | 0.0001 to 1 | COc1cc(-c2cnc3[nH]cc(-c4ccc5ncn(C)c5c4)c3n2)ccc1Cl [P-149, 2-(4-chloro-3-methoxy-phenyl)-7-(3-methylbenzimidazol-5-yl)-5H-pyrrolo[2,3-b]pyrazine]
13 | 0.0001 to 1 | 0.0001 to 1 | CCCS(=O)(=O)Nc1cccc(-c2cnc3[nH]cc(-c4ccc5ncn(C)c5c4)c3n2)c1 [P-155, N-[3-[7-(3-methylbenzimidazol-5-yl)-5H-pyrrolo[2,3-b]pyrazin-2-yl]phenyl]propane-1-sulfonamide]
14 | 0.0001 to 1 | 0.0001 to 1 | CC(C)(C)n1cnc2ccc(-c3c[nH]c4ncc(-c5cnn(C6CC6)c5)nc34)cc21 [P-350, 7-(3-tert-butylbenzimidazol-5-yl)-2-(1-cyclopropylpyrazol-4-yl)-5H-pyrrolo[2,3-b]pyrazine]
15 | 0.0001 to 1 | 0.0001 to 1 | CC(=O)Nc1cccc(-c2cnc3[nH]cc(-c4ccc5ncsc5c4)c3n2)c1 [P-159, N-[3-[7-(1,3-benzothiazol-6-yl)-5H-pyrrolo[2,3-b]pyrazin-2-yl]phenyl]acetamide]
16 | 0.0001 to 1 | 0.0001 to 1 | CC(C)(C)n1cnc2ccc(-c3c[nH]c4ncc(-c5cccc(OC(F)(F)F)c5)cc34)cc21 [P-202, 1-tert-butyl-6-[5-[3-(trifluoromethoxy)phenyl]-1H-pyrrolo[2,3-b]pyridin-3-yl]benzimidazole]
17 | 0.0001 to 1 | 1 to 10 | CC(C)(C)n1cnc2ccc(-c3c[nH]c4ncc(NS(=O)(=O)c5cccc(OC(F)(F)F)c5)cc34)cc21 [P-213, N-[3-(3-tert-butylbenzimidazol-5-yl)-1H-pyrrolo[2,3-b]pyridin-5-yl]-3-(trifluoromethoxy)benzenesulfonamide]
18 | 0.0001 to 1 | 0.0001 to 1 | CC(C)S(=O)(=O)Nc1cccc(-c2cnc3[nH]cc(-c4ccc5ncn(C)c5c4)c3n2)c1 [P-152, N-[3-[7-(3-methylbenzimidazol-5-yl)-5H-pyrrolo[2,3-b]pyrazin-2-yl]phenyl]propane-2-sulfonamide]
19 | 0.0001 to 1 | 0.0001 to 1 | N#Cc1cccc(S(=O)(=O)Nc2cnc3[nH]cc(-c4ccc5ncn(C6CCCNC6)c5c4)c3c2)c1 (stereo not drawn) [P-234, 3-cyano-N-[3-[3-(3-piperidyl)benzimidazol-5-yl]-1H-pyrrolo[2,3-b]pyridin-5-yl]benzenesulfonamide]
20 | 0.0001 to 1 | 0.0001 to 1 | CCS(=O)(=O)Nc1cccc(-c2cnc3[nH]cc(-c4ccc5ncn(C)c5c4)c3n2)c1 [P-154, N-[3-[7-(3-methylbenzimidazol-5-yl)-5H-pyrrolo[2,3-b]pyrazin-2-yl]phenyl]ethanesulfonamide]
21 | 0.0001 to 1 | 0.0001 to 1 | O=C(C1CC1)N1CC=C(c2cnc3[nH]cc(-c4ccc5ncn(C6CCCNC6)c5c4)c3n2)C1 (stereo not drawn) [P-137, cyclopropyl-[3-[7-[3-(3-piperidyl)benzimidazol-5-yl]-5H-pyrrolo[2,3-b]pyrazin-2-yl]-2,5-dihydropyrrol-1-yl]methanone]
22 | 0.0001 to 1 | 0.0001 to 1 | Cn1cnc2ccc(-c3c[nH]c4ncc(-c5cnn(-c6ccccn6)c5)cc34)cc21 [P-174, 1-methyl-6-[5-[1-(2-pyridyl)pyrazol-4-yl]-1H-pyrrolo[2,3-b]pyridin-3-yl]benzimidazole]
23 | 0.0001 to 1 | 0.0001 to 1 | Fc1ccc(-n2cnc3ccc(-c4c[nH]c5ncc(-c6cccc(OC(F)(F)F)c6)cc45)cc32)cc1 [P-204, 1-(4-fluorophenyl)-6-[5-[3-(trifluoromethoxy)phenyl]-1H-pyrrolo[2,3-b]pyridin-3-yl]benzimidazole]
24 | 0.0001 to 1 | 0.0001 to 1 | Cn1cnc2ccc(-c3c[nH]c4ncc(-c5cccc(C(=O)NC6CC6)c5)nc34)cc21 [P-147, N-cyclopropyl-3-[7-(3-methylbenzimidazol-5-yl)-5H-pyrrolo[2,3-b]pyrazin-2-yl]benzamide]
